Earlier results, collected in patent US9278101B2, “Ophthalmologic irrigation solutions and method” (Omeros Corporation, priority 2002, dated 2016).

Legend:
[1] = tested on: non-adrenoceptor imidazoline binding sites
[2] = tested on: alpha-1 receptor subtypes; details: three alpha-1 receptor subtypes
[3] = in vivo

Molecule | affinity for non-adrenoceptor imidazoline binding sites [1] | other results
Brc1c(NC2=NCCN2)ccc2nccnc12 [UK14304, 5-bromo-N-(4,5-dihydro-1H-imidazol-2-yl)-6-quinoxalinamine] | high affinity (nanomolar) | 
Clc1cccc(Cl)c1N=C1NCCN1 [clonidine] | high affinity (nanomolar) | 
c1ccc2c(c1)OCC(C1=NCCN1)O2 (stereo not drawn) [idazoxan] | high affinity (nanomolar) | 
Cc1cc(C(C)(C)C)c(O)c(C)c1CC1=NCCN1 [oxymetazoline] | high affinity (nanomolar) | 
COc1cc2nc(N3CCN(C(=O)c4ccco4)CC3)nc(N)c2cc1OC [prazosin] |  | affinity for alpha-1 receptor subtypes [2]: high affinity (subnanomolar)
tropicamide |  | half-life [3]: 4 to 6 h
